Measured values as given in US6388080B1, “Polymorphic forms of 6-[4-(1-cyclohexyl-1H-tetrazol-5-yl)butoxy]-3,4-dihydro-2(1H)-quinolinone” (priority 2001, dated 2002).

Key:
[1] = stability of the polymorphic form; assay type: physicochemical
[2] = aqueous solubility of cilostazol polymorphic forms; assay type: physicochemical; conditions: for solubility relative to Form A: suggested by lower melting point than Form A in DSC thermogram (FIG. 8)
[3] = DSC of disturbed sample: solid state phase transformation to Form A; assay type: physicochemical; conditions: sample disturbed (scratching/stressed), DSC heating from 30° C. to approximately 200° C. at 10° C. per minute; followed by melt of Form A at about 160° C.
Text: Characterization of Form A of cilostazol, Form B of cilostazol, and Form C of cilostazol was further completed using DSC thermograms, shown in FIGS. 3, 4, and 5, respectively, with DSC thermograms for combinations of Form A and Form B; Form B and Form C; and Forms A, B, and C are shown in FIGS. 6, 7, and 8 respectively. DSC data were generated using a Mettler-Toledo DSC 821^e(Columbus, Ohio) with a Julabo FT900 intercooler chiller (Julabo Company; Allentown, Pa.). In general, samples were analyzed in a vented, sealed aluminum pan. Because the endothermic peak may vary depending upon the rate of heating and the calibration and precision of the instrument, with the amount of peak variation dependent upon the heating rate used, all thermograms included herein were run under the same, consistent conditions: heating at 10° C. per minute under a nitrogen purge at 40 mL/minute. The resultant sample of Example 1A was disturbed with scratching, which caused the cilostazol sample to undergo a solid state phase transformation at approximately 119° C. followed by an endotherm of melt at approximately 160° C. (Form A) during heating by DSC from 30° C. to approximately 200° C. at 10° C. per minute. When the sample is stressed and reheated (as detailed in Example 2A), the sample undergoes a solid state phase transformation at approximately 147° C. followed by an endotherm of melt at about 160° C. […]

bioavailability = assay type: in vivo; conditions: Form A as prepared by the procedures of the '479 patent

| Structure (SMILES) | stability of the form [1] | solubility relative to Form A [2] | solid state phase transformation temperature [3] | aqueous solubility ([2]; Form A as prepared by the procedures of the '479 patent) | bioavailability (bioavailability) |
| --- | --- | --- | --- | --- | --- |
| O=C1CCc2cc(OCCCCc3nnnn3C3CCCCC3)ccc2N1 [Form C, 6-[4-(1-cyclohexyl-1H-tetrazol-5-yl)butoxy]-3,4-dihydro-2(1H)-quinolinone] | stable | more soluble than Form A | approximately 147 °C |  |  |
| O=C1CCc2cc(OCCCCc3nnnn3C3CCCCC3)ccc2N1 [Form B, 6-[4-(1-cyclohexyl-1H-tetrazol-5-yl)butoxy]-3,4-dihydro-2(1H)-quinolinone] | stable | more soluble than Form A | approximately 119 °C |  |  |
| O=C1CCc2cc(OCCCCc3nnnn3C3CCCCC3)ccc2N1 [Form A, 6-[4-(1-cyclohexyl-1H-tetrazol-5-yl)butoxy]-3,4-dihydro-2(1H)-quinolinone] |  |  |  | low | low |
